From patent publication US20210309657A1, “TRICYCLIC COMPOUNDS FOR THE TREATMENT AND PROPHYLAXIS OF BACTERIAL INFECTION” (Hoffmann-La Roche Inc., priority 2018, published 2021)
Values after ≈ are worked out from the molar mass of the structure shown. Like-named read-outs stand apart in the source and are kept apart here.

How the values were obtained:
[1] = tested on: K. pneumoniae (ATCC10031); test: 50% growth inhibitory concentration (IC50) determination assay, K. pneumoniae; assay type: cell-based; settings: Klebsiella pneumoniae, growth inhibition, Iso-Sensitest broth, OD 600 nm over 16h, <0.098 = the detection limit
Description: (§1) The in vitro antimicrobial activity of the compounds against S. aureus (ATCC29213), K. pneumoniae (ATCC10031), and A. baumannii (ATCC17978), was determined according to the following procedure: The assay used a 10-points Iso-Sensitest broth medium to measure quantitatively the in vitro activity of the compounds against S. aureus ATCC29213, K. pneumoniae ATCC 10031, and A. baumannii ATCC17978. Stock compounds in DMSO were serially two-fold diluted (range from 50 to 0.097 μM final concentration) in 384 wells microtiter plates and inoculated with 49 μL the bacterial suspension in Iso-Sensitest broth medium to have a final cell concentration of ˜5×10^5 CFU/mL in a final volume/well of 50 μL/well. Microtiter plates were incubated at 35±2° C. Bacterial cell growth was determined with the measurement of optical density at λ=600 nm each 20 minutes over a time course of 16h. Growth inhibition was calculated during the logarithmic growth of the bacterial cells with determination of the concentration inhibiting 50% (IC50) of the growth. Compounds of the present invention were tested for their concentration inhibiting 50% (IC50). The data of IC50 over S. aureus (ATCC29213), K. pneumoniae (ATCC10031), and A. baumannii (ATCC17978) are illustrated in Table 4.

[2] = tested on: S. aureus (ATCC29213); test: 50% growth inhibitory concentration (IC50) determination assay, S. aureus; assay type: cell-based; settings: Staphylococcus aureus, growth inhibition, Iso-Sensitest broth, OD 600 nm over 16h, <0.098 = the detection limit
Description: as §1

[3] = tested on: A. baumannii (ATCC17978); test: 50% growth inhibitory concentration (IC50) determination assay, A. baumannii; assay type: cell-based; settings: Acinetobacter baumannii, growth inhibition, Iso-Sensitest broth, OD 600 nm over 16h, <0.098 = the detection limit
Description: as §1

[4] = Lyophilisation solubility assay (LYSA); assay type: physicochemical; settings: thermodynamic from solid
Description: The solubility of compounds of present invention was assessed by LYSA assay. Samples were prepared in duplicate from 10 mM DMSO stock solutions ([…]) diluted in 30 μL pure DMSO. After evaporation of DMSO with a centrifugal vacuum evaporator, the residue was dissolved in 0.05 M phosphate buffer (150 μL, pH 6.5), which was stirred for one hour and shook for two hours. After one night, the solution was filtered using a microtiter filter plate. Then the filtrate and its 1/10 dilution were analyzed by HPLC-UV. In addition, a four-point calibration curve was prepared from the 10 mM stock solutions and used for the solubility determination of the compounds.

[5] = aqueous buffer, 0.05 M phosphate buffer, pH 6.5, HPLC-UV, <1.0 = the detection limit, read-out: Lysa

Row | SMILES | IC50 [1] [nM] | IC50 [2] [nM] | IC50 [3] [nM] | solubility thermodynamic [4, 5] [µg/mL] | solubility thermodynamic ([4]; pH 6.5, aqueous buffer) [µg/mL]
1 | CNc1cc(F)c(F)c2c1[nH]c1ncc(-c3cnc(OC)nc3)c(N3CCC(CN)C3)c12 (stereo not shown) [Example 1.19, 4-[3-(Aminomethyl)pyrrolidin-1-yl]-5,6-difluoro-3-(2-methoxypyrimidin-5-yl)-N-methyl-9H-pyrido[2,3-b]indol-8-amine] | < 98 | 712 | 683 | 31 (≈ 70.5 µM) | –
2 | CNc1cc(F)c(F)c2c1[nH]c1ncc(-c3cncc(C#N)c3)c(N3CC(CN)C(F)(F)C3)c12 (stereo not shown) [Example 3.04, 5-[4-[4-(aminomethyl)-3,3-difluoro-pyrrolidin-1-yl]-5,6-difluoro-8-(methylamino)-9H-pyrido[2,3-b]indol-3-yl]pyridine-3-carbonitrile] | < 98 | 649 | 485 | 16 (≈ 34.1 µM) | –
3 | CNc1cc(F)c(F)c2c1[nH]c1ncc(-c3cnc(OC)nc3)c(N3CCC4(C[C@H]4N)C3)c12 (stereo in doubt) [Example 1.34, 4-[Cis-2-amino-5-azaspiro[2.4]heptan-5-yl]-5,6-difluoro-3-(2-methoxypyrimidin-5-yl)-N-methyl-9H-pyrido[2,3-b]indol-8-amine] | < 98 | 603 | 157 | 93 (≈ 206 µM) | –
4 | CNc1cc(F)c(F)c2c1[nH]c1ncc(-c3cnc(C4(C(=O)O)CC4)nc3)c(N(C)C)c12 [Example 2.02, 1-[5-[4-(dimethylamino)-5,6-difluoro-8-(methylamino)-9H-pyrido[2,3-b]indol-3-yl]pyrimidin-2-yl]cyclopropanecarboxylic acid] | 391 | 474 | < 98 | 160 (≈ 365 µM) | –
5 | CNc1cc(F)c(F)c2c1[nH]c1ncc(-c3cnc(OC)nc3)c(N3CCCC(N)C3)c12 (stereo not shown) [Example 1.47, 4-(3-Aminopiperidin-1-yl)-5,6-difluoro-3-(2-methoxypyrimidin-5-yl)-N-methyl-9H-pyrido[2,3-b]indol-8-amine] | < 98 | 275 | 443 | 19 (≈ 43.2 µM) | –
6 | CCNc1cc(F)c(F)c2c1[nH]c1ncc(-c3cnc4ccnn4c3)c(N3CCC(N)C3)c12 (stereo not shown) [Example 1.09, 4-(3-Aminopyrrolidin-1-yl)-N-ethyl-5,6-difluoro-3-pyrazolo[1,5-a]pyrimidin-6-yl-9H-pyrido[2,3-b]indol-8-amine] | < 98 | 238 | 147 | 190 (≈ 424 µM) | –
7 | CNc1cc(F)cc2c1[nH]c1ncc(-c3cnc(OC)nc3)c(N3C4CNCC3C4)c12 [Example 1.61, 4-(3,6-Diazabicyclo[3.1.1]heptan-6-yl)-6-fluoro-3-(2-methoxypyrimidin-5-yl)-N-methyl-9H-pyrido[2,3-b]indol-8-amine] | < 98 | 650 | 792 | – | 62 (≈ 148 µM)
8 | CCNc1cc(F)c(F)c2c1[nH]c1ncc(-c3cncc(C#N)c3)c(N3CCC(CN)C3)c12 (stereo not shown) [Example 1.07, 5-[4-[3-(Aminomethyl)pyrrolidin-1-yl]-8-(ethylamino)-5,6-difluoro-9H-pyrido[2,3-b]indol-3-yl]pyridine-3-carbonitrile] | < 98 | 1090 | 110 | 39 (≈ 87.2 µM) | –
9 | CNc1cc(F)c(F)c2c1[nH]c1ncc(-c3cncc(C#N)c3)c(N3CCCC(N)C3)c12 (stereo not shown) [Example 1.46, 5-(4-(3-Aminopiperidin-1-yl)-5,6-difluoro-8-(methylamino)-9H-pyrido[2,3-b]indol-3-yl)nicotinonitrile] | < 98 | 206 | 387 | 17 (≈ 39.2 µM) | –
10 | CNc1cc(F)c(F)c2c1[nH]c1ncc(-c3cnc(OC)nc3)c(N3CCC(F)(CN)C3)c12 (stereo not shown) [Example 1.28, 4-[3-(aminomethyl)-3-fluoro-pyrrolidin-1-yl]-5,6-difluoro-3-(2-methoxypyrimidin-5-yl)-N-methyl-9H-pyrido[2,3-b]indol-8-amine] | < 98 | 227 | 115 | 88 (≈ 192 µM) | –
11 | CNc1cc(F)c(F)c2c1[nH]c1ncc(-c3cnc(OC)nc3)c(N3C4CNCC3C4)c12 [Example 1.57, 4-(3,6-Diazabicyclo[3.1.1]heptan-6-yl)-5,6-difluoro-3-(2-methoxypyrimidin-5-yl)-N-methyl-9H-pyrido[2,3-b]indol-8-amine] | < 98 | 286 | 314 | – | 91 (≈ 208 µM)
12 | CNc1c(F)c(F)cc2c1[nH]c1ncc(-c3cnc(C4(C(=O)O)CC4)nc3)c(N(C)C)c12 [Example 2.03, 1-(5-(4-(dimethylamino)-6,7-difluoro-8-(methylamino)-9H-pyrido[2,3-b]indol-3-yl)pyrimidin-2-yl)cyclopropanecarboxylic acid] | 189 | 1110 | < 98 | 410 (≈ 935 µM) | –
13 | CCNc1cc(F)c(F)c2c1[nH]c1ncc(-c3cnc(OC)nc3)c(N3CCC[C@@H](CN)C3)c12 [Example 1.53, (S)-4-(3-(Aminomethyl)piperidin-1-yl)-N-ethyl-5,6-difluoro-3-(2-methoxypyrimidin-5-yl)-9H-pyrido[2,3-b]indol-8-amine] | < 98 | 394 | < 98 | 241 (≈ 515 µM) | –
14 | CCNc1cc(F)c(F)c2c1[nH]c1ncc(-c3cnc(OC)nc3)c(N3CC[C@@H](N)C3)c12 [Example 1.18, 4-[(3R)-3-Aminopyrrolidin-1-yl]-N-ethyl-5,6-difluoro-3-(2-methoxypyrimidin-5-yl)-9H-pyrido[2,3-b]indol-8-amine] | < 98 | 567 | 249 | 195 (≈ 444 µM) | –
15 | CNc1cc(F)c(F)c2c1[nH]c1ncc(-c3cncc(C#N)c3)c(N3CCCC(F)(CN)C3)c12 (stereo not shown) [Example 1.54, 5-[4-[3-(Aminomethyl)-3-fluoro-1-piperidyl]-5,6-difluoro-8-(methylamino)-9H-pyrido[2,3-b]indol-3-yl]pyridine-3-carbonitrile] | < 98 | 477 | < 98 | 39 (≈ 83.8 µM) | –
16 | CNc1cc(F)c(F)c2c1[nH]c1ncc(-c3cncc(C#N)c3)c(N3CC4CC4(CN)C3)c12 (stereo not shown) [Example 1.32, 5-[4-[1-(Aminomethyl)-3-azabicyclo[3.1.0]hexan-3-yl]-5,6-difluoro-8-(methylamino)-9H-pyrido[2,3-b]indol-3-yl]pyridine-3-carbonitrile] | < 98 | 1240 | 472 | 10 (≈ 22.4 µM) | –
17 | CNc1cc(F)c(F)c2c1[nH]c1ncc(-c3cnc(OC)nc3)c(N3CC4CC4(CN)C3)c12 (stereo not shown) [Example 1.27, 4-[1-(Aminomethyl)-3-azabicyclo[3.1.0]hexan-3-yl]-5,6-difluoro-3-(2-methoxypyrimidin-5-yl)-N-methyl-9H-pyrido[2,3-b]indol-8-amine] | < 98 | 522 | 340 | 74 (≈ 164 µM) | –
18 | CCNc1cc(Cl)cc2c1[nH]c1ncc(-c3cncc(C#N)c3)c(N3CC[C@@H](N)C3)c12 [Example 1.05, 5-[4-[(3R)-3-Aminopyrrolidin-1-yl]-6-chloro-8-(ethylamino)-9H-pyrido[2,3-b]indol-3-yl]pyridine-3-carbonitrile] | < 98 | 1790 | < 98 | 28 (≈ 64.8 µM) | –
19 | CNc1cc(F)c(F)c2c1[nH]c1ncc(-c3cncc(C#N)c3)c(N3CC[C@@H](N)C3)c12 [Example 1.15, 5-[4-[(3R)-3-Aminopyrrolidin-1-yl]-5,6-difluoro-8-(methylamino)-9H-pyrido[2,3-b]indol-3-yl]pyridine-3-carbonitrile] | < 98 | 526 | 672 | 169 (≈ 403 µM) | –
20 | CCNc1cc(F)cc2c1[nH]c1ncc(-c3cnc(OC)nc3)c(N3CCC[C@@H](CN)C3)c12 [Example 1.52, (S)-4-(3-(Aminomethyl)piperidin-1-yl)-N-ethyl-6-fluoro-3-(2-methoxypyrimidin-5-yl)-9H-pyrido[2,3-b]indol-8-amine] | < 98 | 993 | < 98 | – | –
21 | CCNc1cc(F)cc2c1[nH]c1ncc(-c3cncc(C#N)c3)c(N3CCC4(C[C@H]4N)C3)c12 (stereo in doubt) [Example 1.11, 5-[8-(Ethylamino)-6-fluoro-4-[cis-2-amino-5-azaspiro[2.4]heptan-5-yl]-9H-pyrido[2,3-b]indol-3-yl]pyridine-3-carbonitrile] | < 98 | 863 | < 98 | – | –
